Holding throughout (type): cell-based
In experiment [1] the target is T1, 5-HT3A receptor I139A mutant (Homo sapiens, UniProt P46098, I134A/I139A).
T1 construct: host or cells: Xenopus laevis oocytes injected with in vitro transcribed mRNA
T1 sequence (P46098 24-478 I134A/I139A): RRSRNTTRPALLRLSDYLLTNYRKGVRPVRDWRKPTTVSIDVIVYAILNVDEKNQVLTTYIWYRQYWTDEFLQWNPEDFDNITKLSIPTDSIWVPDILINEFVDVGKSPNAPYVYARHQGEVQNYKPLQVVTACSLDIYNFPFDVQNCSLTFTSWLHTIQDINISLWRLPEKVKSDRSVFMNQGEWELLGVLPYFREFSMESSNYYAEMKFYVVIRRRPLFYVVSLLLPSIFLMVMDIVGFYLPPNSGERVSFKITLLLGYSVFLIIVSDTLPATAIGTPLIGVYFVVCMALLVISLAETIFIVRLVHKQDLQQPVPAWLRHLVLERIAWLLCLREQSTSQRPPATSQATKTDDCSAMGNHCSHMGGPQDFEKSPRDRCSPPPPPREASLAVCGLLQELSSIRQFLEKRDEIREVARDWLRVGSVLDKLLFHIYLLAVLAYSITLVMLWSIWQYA
Kind of experiment: two-electrode voltage clamp, I139A mutant receptor in Xenopus oocytes. The settings on record: 100 µM chanoclavine, read-out: Inhibition Percentage (%). On the procedure: (§1) The site-directed mutation of one or two amino acids was performed using sense and antisense primers and Pfu polymerase (QuickChange Site-Directed Mutagenesis Kit; Agilent, Santa Clara, CA, USA) and amplified by polymerase chain reaction (PCR) to increase the target domain. After removing the existing methylated cDNA using Dpn Ⅰ, the PCR products were transformed into Escherichia coli strain DH5α. The cDNA of the 5-HT3A receptor was linearized by Xho Ⅰ at the end of the multi-cloning site, followed by transcription using T7 polymerase and a transcription kit (mMESSAGE mMACHINE T7 Transcription Kit; Thermo Fisher Scientific, Waltham, MA, USA). […]
(§2) To isolate oocytes, female Xenopus laevis were put into a container filled with ice and left for about one hour. […] When the Xenopus oocytes were ready for injection, 50 ng of mRNA was injected with a nanoliter injector (Drummond Scientific, Vernon Hills, IL, USA). […]
(§3) The oocytes in which mRNA was expressed during the incubation period allowed for the estimation of channel or receptor properties for observing drug and ligand potential interactions using a two-electrode voltage clamp (OC-725C; Warner Instruments, Hamden, CT, USA) and Digidata (1322A; Molecular Devices, Sunnyvale, CA, USA). […] The voltage and current electrodes were filled with 3 M KCl (0.3–0.7 MΩ) and analyzed at a −80 mV holding potential. […]

The target in experiment [2] is T2, 5-HT3A receptor L156A mutant (Homo sapiens, UniProt P46098, L151A).
T2 construct: host or cells: Xenopus laevis oocytes injected with in vitro transcribed mRNA
T2 sequence (P46098 24-478 L151A): T1 sequence (P46098 24-478 I134A/I139A) with A111I, A116I, L128A
Kind of experiment: two-electrode voltage clamp, L156A mutant receptor in Xenopus oocytes. The settings on record: 100 µM chanoclavine, read-out: Inhibition Percentage (%). Here is the method:
as §1, §2, §3
(In general: In two-electrode clamp one electrode senses voltage and the other passes current.)

Experiment [3] addresses T3, 5-HT3A receptor F130A+N138A double mutant (Homo sapiens, UniProt P46098, F125A/N133A).
T3 construct: host or cells: Xenopus laevis oocytes injected with in vitro transcribed mRNA
T3 sequence (P46098 24-478 F125A/N133A): T1 sequence (P46098 24-478 I134A/I139A) with F102A, N110A, A111I, A116I
Kind of experiment: two-electrode voltage clamp, F130A+N138A double mutant receptor in Xenopus oocytes. The settings on record: 300 µM chanoclavine with 5-HT. Here is the method: as §1, §2, §3

The structures appear in SMILES notation. Residue numbers refer to the chain shown, from its start.

The inhibition is the change of the read-out against control, counted positive when it falls.

Turning to `CN[C@@H]1Cc2c[nH]c3cccc(c23)[C@H]1/C=C(\C)CO` [chanoclavine], the figures for the inhibition at 100 µM in experiment [1] and in experiment [2] were 92.8 ± 4.9% and 46.1 ± 6.5%, respectively. For the same compound, the “effect on inward current” value in experiment [3] was “not significantly decreased”.

(Values after article PMC7956620 (Molecules, 2021).)
